Laboratory results: patent publication US10301295B2, “Herbicidal compounds” (Syngenta Participations AG, priority 2014, dated 2019)
Where two headings read alike, the source gives them in different places.

Columns and labels:
Type in all cases: in vivo
wheat = assay: Post-emergence herbicidal activity against cereal crops (wheat) +/- safener, crop selectivity; details: 100%=total damage to plant, 0%=no damage; for Post-emergence herbicidal activity against wheat (percentage phytotoxicity), +CQC: 250 g/ha, plus safener cloquintocet-mexyl (CQC) applied at 50 g/ha; for percent phytotoxicity (crop damage) to wheat at 250 g/ha: Triticum aestivum, 360 h, without safener, read-out: Post-emergence herbicidal activity against wheat (percentage phytotoxicity), Wheat - CQC
Protocol: Seeds of a variety of monocotyledonous and dicotyledonous test plants are sown in standard soil in pots. The plants are cultivated for one day (for pre-emergence) or for about 12 days (for post-emergence) under controlled conditions in a glasshouse (warm climate species at 24/18° C., cool climate species at 20/16° C., both at day/night; 16 hours light; 65% humidity). The test plants are then grown on, in a glasshouse (greenhouse) under controlled conditions (warm climate species at 24/18° C., cool climate species at 20/16° C., both at day/night; 16 hours light; 65% humidity) and are watered twice daily. 15 days after application of the test herbicide (15DAA) (for post-emergence), and 20 days after application of the test herbicide (20DAA) (for pre-emergence), the test plants are evaluated visually, and an assessed percentage phytotoxicity score is given for each herbicidal application on each plant species (with 100%=total damage to plant; 0%=no damage to plant).

[1] = test system: Alopecurus myosuroides (ALOMY); assay: Glasshouse assay for herbicidal activity, pre-/post-emergence (percentage phytotoxicity); details: Alopecurus myosuroides, Rate 250 g/ha, 100%=total damage, 0%=no damage
Method in brief: (§1)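 Visual score (0–100% damage) at 15DAA post-em / 20DAA pre-em. Pots, std soil; treated 1 d (pre) or ~12 d (post) after sowing. 24/18 °C warm spp., 20/16 °C cool spp., 16 h light, 65% RH.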

[2] = test system: Echinochloa crus-galli (ECHCG); assay: as above; details: Echinochloa crus-galli, Rate 250 g/ha, 100%=total damage, 0%=no damage
Method in brief: as §1

Avena fatua (AVEFA) = assay: as above; details: Avena fatua, Rate 250 g/ha, 100%=total damage, 0%=no damage
Method in brief: as §1

Lolium perenne (LOLPE) = assay: as above; details: Lolium perenne, Rate 250 g/ha, 100%=total damage, 0%=no damage
Method in brief: as §1

[3] = 360 h, post-emergence, visual assessment 15 DAA, read-out: Post-emergence herbicidal activity (percentage phytotoxicity), ALOMY POST
[4] = 480 h, pre-emergence, visual assessment 20 DAA, read-out: Pre-emergence herbicidal activity (percentage phytotoxicity), ALOMY PRE
[5] = post-emergence, 360 h, post-emergence, visual assessment 15 DAA, read-out: Post-emergence herbicidal activity (percentage phytotoxicity), ECHCG POST
[6] = pre-emergence, 480 h, pre-emergence, visual assessment 20 DAA, read-out: Pre-emergence herbicidal activity (percentage phytotoxicity), ECHCG PRE
[7] = post-emergence, 360 h, post-emergence, visual assessment 15 DAA, read-out: Post-emergence herbicidal activity (percentage phytotoxicity), AVEFA POST
[8] = pre-emergence, 480 h, pre-emergence, visual assessment 20 DAA, read-out: Pre-emergence herbicidal activity (percentage phytotoxicity), AVEFA PRE
[9] = post-emergence, 360 h, post-emergence, visual assessment 15 DAA, read-out: Post-emergence herbicidal activity (percentage phytotoxicity), LOLPE POST
[10] = pre-emergence, 480 h, pre-emergence, visual assessment 20 DAA, read-out: Pre-emergence herbicidal activity (percentage phytotoxicity), LOLPE PRE

SMILES | Post-emergence herbicidal activity against wheat (percentage phytotoxicity), +CQC (wheat) [%] | percent phytotoxicity (crop damage) to wheat at 250 g/ha (wheat) [%] | pest or weed control at 250 g/ha [1, 3] [%] | pest or weed control at 250 g/ha [1, 4] [%] | pest or weed control at 250 g/ha [2, 5] [%] | pest or weed control at 250 g/ha [2, 6] [%] | pest or weed control at 250 g/ha (Avena fatua (AVEFA); [7]) [%] | pest or weed control at 250 g/ha (Avena fatua (AVEFA); [8]) [%] | pest or weed control at 250 g/ha (Lolium perenne (LOLPE); [9]) [%] | pest or weed control at 250 g/ha (Lolium perenne (LOLPE); [10]) [%]
Cc1cc(C)c(C2C(=O)CC(CCNC(=O)NC(=O)c3c(F)cccc3F)C2=O)c(C)c1 (stereo not drawn) [Compound A48] | 50 | 60 | 90 | 100 | 100 | 90 | 100 | 90 | 100 | 100
Cc1cc(C)c(C2C(=O)CC(CCNC(=O)NC(=O)c3ccc(F)cc3F)C2=O)c(C)c1 (stereo not drawn) [Compound A53] | 80 | 90 | 90 | 80 | 100 | 100 | 100 | 70 | 100 | 90
Cc1cc(C)c(C2C(=O)CC(CCNc3ncc(C(F)(F)F)cc3Cl)C2=O)c(C)c1 (stereo not drawn) [Compound A36] | 10 | 80 | 90 | 60 | 90 | 90 | 100 | 90 | 100 | 90
Cc1cc(C)c(C2C(=O)CC(CCNC(=O)Nc3cc(C(C)(C)F)ncn3)C2=O)c(C)c1 (stereo not drawn) [Compound A16] | 50 | 80 | 90 | 80 | 80 | 100 | 100 | 70 | 90 | 90
Cc1cc(C)c(C2C(=O)CC(CCNC(=O)Nc3cc(C(F)(F)F)ccn3)C2=O)c(C)c1.Cl (stereo not drawn) [Compound A2, 1-[2-[2,4-dioxo-3-(2,4,6-trimethylphenyl)cyclopentyl]ethyl]-3-[4-(trifluoromethyl)-2-pyridyl]urea] | 80 | 80 | 80 | 70 | 100 | 90 | 100 | 80 | 100 | 80
Cc1cc(-n2cc(Cl)cn2)cc(C)c1C1C(=O)CC(CCNC(=O)NOC(C)(C)C)C1=O (stereo not drawn) [Compound A25] | 0 | 60 | 70 | 30 | 90 | 50 | 80 | 0 | 20 | 30
Cc1cc(-c2ncc(Cl)cc2F)cc(C)c1C1C(=O)CC(CCNC(=O)NC(C)(C)C)C1=O.Cl (stereo not drawn) [Compound A29] | 70 | 90 | 100 | 90 | 100 | 90 | 100 | 100 | 100 | 100
Cc1cc(C)c(C2C(=O)CC(CCNC(=S)Nc3ccccc3F)C2=O)c(C)c1 (stereo not drawn) [Compound A88] | 0 | 0 | 0 | 0 | 0 | 40 | 0 | 0 | 60 | 40
CONC(=O)NCCC1CC(=O)C(c2c(C)cc(C)cc2C)C1=O (stereo not drawn) [Compound A18] | 0 | 60 | 80 | 60 | 90 | 60 | 80 | 50 | 80 | 70
Cc1cc(C)c(C2C(=O)CC(CCNS(=O)(=O)c3ccc(F)c(Cl)c3)C2=O)c(C)c1 (stereo not drawn) [Compound A75] | 0 | 0 | 60 | 70 | 30 | 70 | 80 | 60 | 70 | 80
Cc1cc(-n2cc(Cl)cn2)cc(C)c1C1C(=O)CC(CCNC(=O)N(C)c2ccccn2)C1=O (stereo not drawn) [Compound A20] | 0 | 80 | 80 | 20 | 100 | 100 | 100 | 80 | 90 | 80
Cc1cc(C)c(C2C(=O)CC(CCNC(=O)NC(=O)c3cc(C(F)(F)F)ccc3Cl)C2=O)c(C)c1 (stereo not drawn) [Compound A62] | 70 | 80 | 90 | 70 | 80 | 80 | 80 | 30 | 80 | 40
